Test results published in patent publication US20240198337A1, “Bone Marrow on a Chip” (NEW YORK UNIVERSITY, priority 2021, published 2024).

What was measured:
[1] = test system: ETV6-RUNX1+ REH and Ph+ SUP-B15 human B-ALL cell lines; assay: Chemo-resistance of engineered human B-ALL BM niches to increasing doses of vincristine (Leukemia-on-a-Chip); type: cell-based; details: B-ALL co-cultured with niche cells
Text: FIG. 4A through FIG. 4G depicts modeling the leukemic bone marrow (BM) niche in a Leukemia-on-a-Chip platform. […] (FIG. 4C) The Hematoxylin and Eosin (H&E) staining image of the in vivo murine leukemic BM niche, with the enlarged area from showing the co-localization of B-ALL cells respectively within the perivascular and endosteal niches. (FIG. 4D) The chemo-resistance was compared between the engineered human BM niches of ETV6-RUNX1+ REH and Ph+ SUP-B15 B-ALL. Each drug concentration had >3 experimental replicates. (FIG. 4E) The cytokine profiles from two B-ALL blasts with and without niche cells were quantified using membrane-based ELISA analysis. (FIG. 4F) The quantification of nuclear (nuc)/cytoplasmic (cyto) ratio of NF-κB in REH and SUP B-ALL within their respective niche models. The ratios for REH and SUP were manually measured from 3 experimental replicates (N>150). […]
The outcome of drugs was defined by the viability of B-ALL cells as a cytotoxic end point after drug treatment. […] The cell viability was quantitatively determined by using Calcein-AM (Thermo Fischer Scientific) and DAPI, which respectively stained the live and dead cells. […] Afterward, cells were observed under a fluorescence microscope, and cellular viability was quantitatively measured by counting the number of objects in the green (live cells) and red (dead cells) channels. […]

REH B-ALL blasts = assay: REH viability cultured with hematopoietic cells under VCR treatment; type: cell-based, human; details: 48 hr treatment of 20 nM VCR; co-culture with CD34+ HSPC-derived hematopoietic cells
Text: FIG. 13A through FIG. 13L depict the results of niche cells functioning disparately to regulate leukemia progression. (FIG. 13A) Membrane-based ELISA analysis of CXCL12 secretion of ECs (Top left) and MSCs (Top right). Western blotting of CXCL12 expression of ECs (Bottom left) and MSCs (Bottom right). (FIG. 13B) VCAM-1 expression of ECs and the quantification result (N>200). (FIG. 13C) OPN expression of 2D cultured MSCs and the quantification result (N>200). (FIG. 13D) The correlation between distance of B-ALL to MSCs and dye retaining ability of B-ALL (N>120). B-ALL with lower DiD intensity was excluded as indicated by the dash line. (FIG. 13E) and (FIG. 13F) The flow cytometric images showing DiD dye retained in B-ALL, i.e. low (Lo), middle (Mid), and high (Hi) intensity. (FIG. 13G) The representative images showing p21 expression in B-ALL located in the perivascular and endosteal niches (N=54). (FIG. 13H) B-ALL viability in the two niches treated with different drugs. (FIG. 13I) NF-κB activation in REH after co-cultured with hematopoietic cells. […] (FIG. 13L) The quantified number of CD34+ cells. […]
The contributing mechanisms from hematopoietic cells was then investigated. […] Furthermore, healthy bone marrow mononuclear cells were cultured with and without REH blasts in the leukemia systems for day 1 and day 9 and the number of CD34+ cells was quantified. […]

murine Ph+ B-ALL cells = assay: Drug resistance testing: B-ALL cell viability in 3D hydrogel devices (Calcein-AM/DAPI); type: cell-based; details: NIL 1 μM, PRE 1 μM, VCR 0.1 μM; for B-ALL drug-induced cell death (chemo-resistance): presence of niche cells
Experimental: The outcome of drugs was defined by the viability of B-ALL cells as a cytotoxic end point after drug treatment. B-ALL cells were cultured alone or co-cultured with niche cells in 3D hydrogel devices for 24 hr, and then incubated with 1 μM nilotinib (NIL, Cayman Chemical), 1 μM prednisone (PRE, Sigma), and 0.1 μM vincristine (VCR, Sigma) for 48 hr. The cell viability was quantitatively determined by using Calcein-AM (Thermo Fischer Scientific) and DAPI, which respectively stained the live and dead cells. Briefly, cells were rinsed thrice with PBS and incubated with Calcein-AM and DAPI ([…] and 5 μg/mL in PBS or medium) solution for 30 min at 37° C., followed by a final rinse with PBS. Afterward, cells were observed under a fluorescence microscope, and cellular viability was quantitatively measured by counting the number of objects in the green (live cells) and red (dead cells) channels. Untreated groups of B-ALL cells were used as controls to benchmark the drug resistance of different groups.

CC[C@]1(O)C[C@H]2CN(CCc3c([nH]c4ccccc34)[C@@](C(=O)OC)(c3cc4c(cc3OC)N(C=O)[C@H]3[C@@](O)(C(=O)OC)[C@H](OC(C)=O)[C@]5(CC)C=CCN6CC[C@]43[C@@H]65)C2)C1 [vincristine]
chemotherapy sensitivity (chemo-resistance) of REH versus SUP BM niches [1]: SUP B-ALL co-cultured with niche cells showing more resistant to VCR than REH co-cultured with niche cells | REH viability / chemo-resistance with hematopoietic cells (REH B-ALL blasts): hematopoietic cells also promoted NF-κB activation in B-ALL cells and chemo-resistance to VCR treatment | viability of B-ALL cells in perivascular versus endosteal niche (murine Ph+ B-ALL cells; 2-day treatment): a stronger dormancy and chemo-resistance of B-ALL cells in the endosteal niche | B-ALL eradication (viability) (murine Ph+ B-ALL cells; absence of niche cells, 48 hr): efficient B-ALL eradication | B-ALL drug-induced cell death (chemo-resistance) (murine Ph+ B-ALL cells; 48 hr): chemo-resistance phenomenon was confirmed | B-ALL drug-induced cell death (chemo-resistance) (murine Ph+ B-ALL cells; 48 hr, listed as VCR): partial rescue of drug-induced cell death
